A short description of data set [1]: Pharmacokinetics of the drug after single oral dose (volume of distribution, half lives). The class given is in vivo. To be noted: for half-life: human, plasma, oral. On the procedure:
In this case, the drug is eliminated rapidly from the plasma via distribution into other tissues as well as through metabolism and excretion into the urine. The rapid elimination makes it necessary to deliver the drug into the GI tract for extended periods of time, up to about 24 hours. It may also require that the drug be delivered in an ascending profile such as that shown in this FIG. 5. Such ascending profile may be accomplished by increasing the dose from an initial dose in two to five increments to achieve a desired maximum dose or by delivering a dosage form with an ascending profile for the initial two to five doses. Such doses may be delivered every 24 hours or every 12 hours.
A steady state plasma profile occurs after the administration of two to three doses. The achievement of steady state with the desirable Cmax/Cmin ratio after the administration of very few doses is advantageous in that therapeutic levels are achieved in a short time and maintained thereafter. Rapid attainment of steady state allows for faster increases or decreases in dose without unwanted side effects and the resultant titration to a therapeutically effective dose and, if necessary, withdrawal of therapy. The Cmax/Cmin ratio at steady state is less than 3, often less than 2, often less than 1.5 and between 1.0 and 2.

The nature of data set [2]: In vitro release rate (dissolution) from dosage forms, FIG. 3-5. The class given is physicochemical. As to the method: By “dissolution rate” or “release rate” is intended the amount of active agent released in vitro from a dosage form per unit time into a release medium, usually in units of milligrams per hour (mg/hr). In vitro release rates are performed on dosage forms placed in metal coil sample holders attached to a USP Type VII bath indexer in a constant temperature water bath at 37° C. In addition, other appropriate dissolution test apparatuses may be suitable, such as, USP apparatus I or II. Aliquots of the release rate solutions are injected into a chromatographic system to quantify the amounts of drug released during each testing interval. According to the invention, between 2 and 50% of the dose is released following two hours after exposure of the dosage form to the environment of use. These dissolution rates may be between 2 and 60% or 10 and 50% within the first 4 hours, between about 20 and 80% or 35 and 70% from 4 hours to about 8 hours following exposure to the environment of use between about 35 and 95% or 45 and 85% from 8 hours to about 12 hours following exposure to the environment of use and greater than 50 to 80% or greater than 90% following 12 hours after exposure to the environment of use and greater than 90% following 22 hours after exposure to the environment of use.

This note sets out measurements from patent US20060182805A1, “Dosage form and method for sustained release of substituted pyrazine compound” (Jazz Pharmaceuticals, priority 2005, published 2006).

Read-outs that look alike come from different tables or passages of the source.

What is called half-life is the time needed for the level to fall by half in the phase considered. As to `Nc1cnc(-c2cc(Cl)cc(Cl)c2Cl)c(N)n1` [3-(2,3,5-trichloro-phenyl)-pyrazine-2,6-diamine], the half-life in data set [1] (read-out: final half life of the drug) was 600 to 780 min; in data set [1] (read-out: initial half life of the drug), less than 300 min. Besides, in data set [1] (single oral dose), the “volume of distribution (Vd)” value is reported as “about 640 liters”. Further, in data set [2] (ascending release profile, FIG. 5), the “period of release, controlled and increasing dose” value was determined as 24 h. In addition, the “period of release of active agent” value in data set [2] (first-order release profile, FIG. 4) was “about 20 hours”; in data set [2] (zero-order release profile, FIG. 3), “about 20 hours”. For the same molecule, the amount released in data set [2] (first-order release profile, after 11 hours, FIG. 4) turned out to be 90%; in data set [2] (zero-order release profile, after 16 hours, FIG. 3), 90%.
